In patent publication US7442796B2, “Compounds for the treatment of metabolic disorders” (Wellstat Therapeutics Corporation, priority 2003, dated 2008):

Tested on: db/db mice
Assay: Antidiabetic effects in db/db mice (serum glucose and triglycerides after daily oral dosing)
Format: in vivo
Conditions: male db/db mice, 17 days
Excerpt: C57BL/Ksola (db/db) mice have a defect in leptin signaling, leading to hyperphagia, obesity and diabetes. Moreover, unlike ob/ob mice on a C57BL/6J background, db/db mice on a C57BLKS background undergo failure of their insulin-producing pancreatic islet cells, resulting in progression from hyperinsulinemia (associated with peripheral insulin resistance) to hypoinsulinemic diabetes.
Male obese (db/db homozygote) C57BL/Ksola mice approximately 8 weeks of age, were obtained from Jackson Labs (Bar Harbor, Me.) and sorted into groups of 7 animals each animals such that the body weights (40-45 g) and serum glucose levels (≧300 mg/dl in fed state) were similar between groups. A minimum of 7 days was allowed for adaptation after arrival. All animals were maintained under controlled temperature (23° C.), relative humidity (50±5%) and light (7:00-19:00), and allowed free access to standard chow (Formulab Diet 5008, Quality Lab Products, Elkridge, Md.) and water.
Treatment cohorts were given daily oral doses of vehicle (1% hydroxypropylmethylcellulose), Compounds BI, CF, CG, CQ or phenylacetate for 17 days. At the end of the treatment period, blood samples were collected and serum glucose and triglycerides were measured.

Compound	Glucose mg/dL (±SEM) (60 mg/kg daily oral) [mg/dL]	Triglycerides (60 mg/kg daily oral) [mg/dL]	Glucose mg/dL (±SEM) (100 mg/kg daily oral) [mg/dL]	Triglycerides (100 mg/kg daily oral) [mg/dL]	Glucose mg/dL (±SEM) (300 mg/kg daily oral) [mg/dL]	Triglycerides (300 mg/kg daily oral) [mg/dL]
Cc1cccc(C)c1COc1cccc(C(=O)C(=O)O)c1 [CQ, [3-(2,6-Dimethylbenzyloxy)-phenyl]-oxoacetic acid]	691 ± 37	175 ± 25	786 ± 65	125 ± 10	–	–
O=C(O)Cc1ccccc1 [Phenylacetate, reference compound]	–	–	–	–	661 ± 64	171 ± 33
